Measurements taken from US20150344457A1, “METHODS OF INHIBITING PRMT5” (EPIZYME, INC., priority 2012, published 2015).
pIC50: −log10 of the molar value. Like-named read-outs stand apart in the source and are kept apart here. One block for each molecule: values may come before it.

Biological target: T1, PRMT5/MEP50 (Homo sapiens, UniProt O14744)
T1 construct: Expressed full-length human Flag-PRMT5/6His-MeP50 protein complex was purified; made in house; host or cells: Spodoptera frugiperda (SF9) insect cells, baculovirus (pDEST8)
T1 sequence (O14744 with tags, fused parts or gaps): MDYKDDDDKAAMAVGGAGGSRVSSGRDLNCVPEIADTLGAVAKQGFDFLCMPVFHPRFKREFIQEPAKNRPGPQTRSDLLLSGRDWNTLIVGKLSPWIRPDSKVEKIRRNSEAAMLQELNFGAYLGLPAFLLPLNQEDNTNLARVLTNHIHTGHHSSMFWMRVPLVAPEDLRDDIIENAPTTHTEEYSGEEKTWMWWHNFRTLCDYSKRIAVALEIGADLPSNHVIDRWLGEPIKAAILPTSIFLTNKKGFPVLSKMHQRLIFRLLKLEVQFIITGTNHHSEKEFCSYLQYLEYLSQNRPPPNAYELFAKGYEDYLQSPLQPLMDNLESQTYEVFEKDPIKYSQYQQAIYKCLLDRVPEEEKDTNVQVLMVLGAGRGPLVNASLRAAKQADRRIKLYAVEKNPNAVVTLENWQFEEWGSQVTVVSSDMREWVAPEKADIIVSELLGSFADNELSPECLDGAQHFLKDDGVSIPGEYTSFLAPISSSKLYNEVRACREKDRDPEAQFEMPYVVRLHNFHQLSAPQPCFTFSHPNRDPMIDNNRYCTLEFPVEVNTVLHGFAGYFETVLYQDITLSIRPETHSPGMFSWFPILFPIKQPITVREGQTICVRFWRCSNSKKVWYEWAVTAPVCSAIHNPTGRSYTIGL
T1 sequence (Q9BQA1 with tags, fused parts or gaps partner limits assumed): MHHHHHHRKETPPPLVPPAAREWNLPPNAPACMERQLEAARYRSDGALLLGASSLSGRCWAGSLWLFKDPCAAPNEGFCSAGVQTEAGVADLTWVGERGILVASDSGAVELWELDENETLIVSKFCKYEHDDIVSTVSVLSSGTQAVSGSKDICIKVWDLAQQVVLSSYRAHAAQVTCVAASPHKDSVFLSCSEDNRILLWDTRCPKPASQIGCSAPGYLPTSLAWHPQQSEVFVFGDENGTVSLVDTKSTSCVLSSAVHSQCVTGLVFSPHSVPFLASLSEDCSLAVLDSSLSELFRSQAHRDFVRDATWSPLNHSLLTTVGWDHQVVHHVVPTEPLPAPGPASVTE
Test: PRMT5 Biochemical Assay (PRMT5/MEP50 enzyme assay on peptide substrate, 3H-SAM Flashplate)
Details: read-out: Biochemical IC50
From the text: S-adenosylmethionine (SAM), S-adenosylhomocysteine (SAH), bicine, KCl, Tween20, dimethylsulfoxide (DMSO), bovine skin gelatin (BSG), and Tris(2-carboxyethyl)phosphine hydrochloride solution (TCEP) were purchased from Sigma-Aldrich at the highest level of purity possible. ^3H-SAM was purchase from American Radiolabeled Chemicals with a specific activity of 80 Ci/mmol 384-well streptavidin Flashplates were purchased from PerkinElmer.
Peptide representative of human histone H4 residues 1-15 was synthesized with a C-terminal linker-affinity tag motif and a C-terminal amide cap by 21st Century Biochemicals. […] The sequence was Ac-[…][K-Biot]-amide (SEQ ID NO.:3).
Full-length human MEP50 (NM_024102) clone was amplified from a human testis cDNA library incorporating a 5′ sequence encoding a 6-histidine tag (MHHHHHH) (SEQ ID NO.:5) fused directly to Arg 2 of MEP50. The amplified genes were sublconed into pENTR/D/TEV (Life Technologies) and subsequently transferred by Gateway™ attL×attR recombination to pDEST8 baculvirus expression vector (Life Technologies).
Recombinant baculovirus and Baculovirus-Infected Insect Cells (BIIC) were generated according to Bac-to-Bac kit instructions (Life Technologies) and Wasilko, 2006, respectively. Protein over-expression was accomplished by infecting exponentially growing Spodoptera frugiperda (SF9) cell culture at 1.2×10^6 cell/ml with a 5000 fold dilution of BIIC stock. Infections were carried out at 27° C. for 72 hours, harvested by centrifugation, and stored at −80° C. for purification.
Flag-PRMT5/6His-MeP50 was eluted with 300 mM Imidazole in the same buffer. […] Reference: Wasilko, D. J. and S. E. Lee: “TIPS: titerless infected-cells preservation and scale-up” Bioprocess J., 5 (2006), pp. 29-32.
General Procedure for PRMT5/MEP50 Enzyme Assays on Peptide Substrates.
The assays were all performed in a buffer consisting of 20 mM Bicine (pH=7.6), 1 mM TCEP, 0.005% BSG, and 0.002% Tween20, prepared on the day of use. Compounds in 100% DMSO (1 ul) were spotted into a polypropylene 384-well V-bottom plates (Greiner) using a Platemate Plus outfitted with a 384-channel head (Thermo Scientific). DMSO (1 ul) was added to Columns 11, 12, 23, 24, rows A-H for the maximum signal control and 1 ul of SAH, a known product and inhibitor of PRMT5/MEP50, was added to columns 11, 12, 23, 24, rows I-P for the minimum signal control. A cocktail (40 ul) containing the PRMT5/MEP50 enzyme and the peptide was added by Multidrop Combi (Thermo-Fisher). The compounds were allowed to incubate with PRMT5/MEP50 for 30 min at 25 degrees Celsius, then a cocktail (10 ul) containing ^3H-SAM was added to initiate the reaction (final volume=51 ul). The final concentrations of the components were as follows: PRMT5/MEP50 was 4 nM, ^3H-SAM was 75 nM, peptide was 40 nM, SAH in the minimum signal control wells was 100 uM, and the DMSO concentration was 1%. The assays were stopped by the addition of non-radioactive SAM (10 ul) to a final concentration of 600 uM, which dilutes the ^3H-SAM to a level where its incorporation into the peptide substrate is no longer detectable. 50 ul of the reaction in the 384-well polypropylene plate was then transferred to a 384-well Flashplate and the biotinylated peptides were allowed to bind to the streptavidin surface for at least 1 hour before being washed three times with 0.1% Tween20 in a Biotek ELx405 plate washer. The plates were then read in a PerkinElmer TopCount plate reader to measure the quantity of ^3H-labeled peptide bound to the Flashplate surface, measured as disintegrations per minute (dpm) or alternatively, referred to as counts per minute (cpm).
where dpm=disintegrations per minute, cmpd=signal in assay well, and min and max are the respective minimum and maximum signal controls.
where top and bottom are the normally allowed to float, but may be fixed at 100 or 0 respectively in a 3-parameter fit.

[1] = Table B-2, PRMT5/MEP50 4 nM, 3H-SAM 75 nM, peptide 40 nM
[2] = PRMT5 biochemical assay, Table C-2
[3] = Table A-2, PRMT5/MEP50 4 nM, 3H-SAM 75 nM, peptide 40 nM

SMILES: O=C(NCC(O)CN1CCc2ccccc2C1)c1cccc(NC2CCOC2)c1 (centres unmarked) [Compound B45.]
pIC50 [1]: > 7.00

SMILES: CN(c1cccc(C(=O)NCC(O)CN2CCc3ccccc3C2)c1)C1CCOCC1 (centres unmarked) [Compound B49.]
pIC50 [1]: 6.00 to 7.00

SMILES: CC(=O)Nc1cccnc1OCC(=O)NCC(O)CN1CCc2ccccc2C1 (centres unmarked) [Compound A128]
pIC50 [3]: < 4.30

SMILES: O=C(CCc1ccccc1)NCC(O)CN1CCc2ccccc2C1 (centres unmarked) [Compound A2]
pIC50 [3]: 5.00 to 6.00

SMILES: O=C(COc1ccccc1C1CNC1)NCC(O)CN1CCc2ccccc2C1 (centres unmarked) [Compound A132]
pIC50 [3]: 5.00 to 6.00

SMILES: Cc1c(NC2CCOCC2)cccc1C(=O)NCC(O)CN1CCc2ccccc2C1 (centres unmarked) [Compound B40.]
pIC50 [1]: > 7.00

SMILES: O=C(COc1cccc2c1CCCN2Cc1ccccc1)NCC(O)CN1CCc2ccccc2C1 (centres unmarked) [Compound A4]
pIC50 [3]: > 7.00

SMILES: O=C(NCC(O)CN1CCc2ccccc2C1)c1cccc(C2CCCN2)c1 (centres unmarked) [Compound B42.]
pIC50 [1]: 6.00 to 7.00

SMILES: O=C(COc1cccc2cccnc12)NC[C@H](O)CN1Cc2ccccc2C1 [Compound E4.]
pIC50 (Table E-2): > 7.00

SMILES: CCN(c1cccc(C(=O)NCC(O)CN2CCc3ccccc3C2)c1)C1CCOCC1 (centres unmarked) [Compound B47.]
pIC50 [1]: 6.00 to 7.00

SMILES: CS(=O)(=O)Nc1ccc(C(=O)NCC(O)CN2CCc3ccccc3C2)cc1 (centres unmarked) [Compound B31.]
pIC50 [1]: 6.00 to 7.00

SMILES: O=C(NC[C@H](O)CN1CCc2ccccc2C1)c1ccccc1 [Compound B3.]
pIC50 [1]: > 7.00

SMILES: O=C(CC1CCCCC1)NC[C@H](O)CN1CCc2ccccc2C1 [Compound A56]
pIC50 [3]: 5.00 to 6.00

SMILES: Cn1nccc1-c1cccc(C(=O)NCC(O)CN2CCc3ccccc3C2)c1 (centres unmarked) [Compound B2.]
pIC50 [1]: > 7.00

SMILES: O=C(COc1cccc(NC2CCOCC2)n1)NCC(O)CN1CCc2ccccc2C1 (centres unmarked) [Compound A121]
pIC50 [3]: 5.00 to 6.00

SMILES: CN(C)CCOc1cccc(C(=O)NCC(O)CN2CCc3ccccc3C2)c1 (centres unmarked) [Compound B28.]
pIC50 [1]: > 7.00

SMILES: C[C@@H](Oc1cccc2cccnc12)C(=O)NC[C@H](O)CN1Cc2ccccc2C1 [Compound E5.]
pIC50 (Table E-2): > 7.00

SMILES: O=C(NCC(O)CN1CCc2ccccc2C1)c1cccc(CNC2CCOCC2)c1 (centres unmarked) [Compound B15.]
pIC50 [1]: > 7.00

SMILES: O=C(NC[C@H](O)CN1CCc2ccccc2C1)c1cccc(-c2ccccn2)c1 [Compound B20.]
pIC50 [1]: > 7.00

SMILES: O=C(NC[C@@H](O)CN1CCc2ccccc2C1)c1cccc(-c2ccccn2)c1 [Compound B19.]
pIC50 [1]: > 7.00

SMILES: OC(COc1ccccc1N1CCNCC1)CN1CCc2ccccc2C1 (centres unmarked) [Compound D7]
pIC50 (Table D-2): 4.40 to 5.00

SMILES: O=C(COC1CCCCC1)NCC(O)CN1CCc2ccccc2C1 (centres unmarked) [Compound A24]
pIC50 [3]: 6.00 to 7.00

Next, values leading:

pIC50 (Table D-2): 5.00 to 6.00
SMILES: OC(COc1cccc(OCc2ccccc2)c1)CN1CCc2ccccc2C1 (centres unmarked) [Compound D20]

pIC50 [2]: 6.00 to 7.00
SMILES: Cc1ccc(N2CCN(CC(O)CN3CCc4ccccc4C3)C(=O)C2)cc1 (centres unmarked) [Compound C15]

pIC50 (Table D-2): 5.00 to 6.00
SMILES: CCOC(=O)CC1c2ccccc2CCN1CC(O)COc1cccc(-c2ccc3ncn(C)c3c2)c1 (centres unmarked) [Compound D144]

pIC50 (Table D-2): 5.00 to 6.00
SMILES: OC(COc1cccc(-c2cccc(Cl)c2)c1)CN1CCc2ccccc2C1 (centres unmarked) [Compound D91]

pIC50 (Table D-2): 5.00 to 6.00
SMILES: OC(COc1ccccc1-c1ccno1)CN1CCc2ccccc2C1 (centres unmarked) [Compound D16]

pIC50 (Table D-2): 5.00 to 6.00
SMILES: Oc1ccc(-c2cccc(OCC(O)CN3CCc4ccccc4C3)c2)cc1 (centres unmarked) [Compound D96]

pIC50 [2]: 5.00 to 6.00
SMILES: O=C1CC(c2ccccc2)CCN1C[C@@H](O)CN1CCc2ccccc2C1 (some centres unmarked) [Compound C17]

pIC50 (Table D-2): 5.00 to 6.00
SMILES: OC(COCc1ccc(Cl)cc1Cl)CN1CCc2ccccc2C1 (centres unmarked) [Compound D281]

pIC50 [2]: 6.00 to 7.00
SMILES: O=C1CN(c2ccc(CO)cc2)CCN1CC(O)CN1CCc2ccccc2C1 (centres unmarked) [Compound C20]

pIC50 (Table D-2): < 4.40
SMILES: CC1CN(CC(O)COc2cccc(CNC3CCCC3)c2)Cc2ccccc21 (centres unmarked) [Compound D56]

pIC50 (Table D-2): 5.00 to 6.00
SMILES: OC(COC1CCCN(c2ccccc2)C1)CN1CCc2ccccc2C1 (centres unmarked) [Compound D2]

pIC50 (Table D-2): 5.00 to 6.00
SMILES: OC(COc1cccc(-c2cncnc2)c1)CN1CCc2ccccc2C1 (centres unmarked) [Compound D140]

pIC50 (Table D-2): < 4.40
SMILES: Cn1cnc2ccc(-c3cccc(OCC(O)CN4CCc5ccccc5C4COc4ccccc4)c3)cc21 (centres unmarked) [Compound D178]

pIC50 [2]: 6.00 to 7.00
SMILES: O=C1CN(c2ccccc2Cl)CCN1CC(O)CN1CCc2ccccc2C1 (centres unmarked) [Compound C9]

pIC50 (Table D-2): < 4.40
SMILES: CCOC(=O)C1c2ccccc2CCN1CC(O)COc1cccc(-c2ccc3ncn(C)c3c2)c1 (centres unmarked) [Compound D193]

pIC50 (Table D-2): 5.00 to 6.00
SMILES: CC(C)(C)OC(=O)N1CCC(OCC(O)CN2CCc3ccccc3C2)C1 (centres unmarked) [Compound D287]

pIC50 (Table D-2): 5.00 to 6.00
SMILES: CN(C(=O)c1cnco1)c1cccc(OCC(O)CN2CCc3ccccc3C2)c1 (centres unmarked) [Compound D196]

pIC50 [2]: 6.00 to 7.00
SMILES: CN(C)c1ccccc1N1CCN(C[C@H](O)CN2CCc3ccccc3C2)C(=O)C1 [Compound C29]

pIC50 (Table D-2): 5.00 to 6.00
SMILES: OC(COc1cccc(-c2ccncc2F)c1)CN1CCc2ccccc2C1 (centres unmarked) [Compound D190]

pIC50 (Table D-2): 6.00 to 7.00
SMILES: OC(COc1cccc(CNc2cc[nH]n2)c1)CN1CCc2ccccc2C1 (centres unmarked) [Compound D6]

pIC50 (Table D-2): 4.40 to 5.00
SMILES: OC(CCc1cccc(CNC2CCCC2)c1)CN1CCc2ccccc2C1 (centres unmarked) [Compound D36]

pIC50 (Table D-2): 4.40 to 5.00
SMILES: OC(COCc1cccnc1)CN1CCc2ccccc2C1 (centres unmarked) [Compound D283]

pIC50 [2]: 5.00 to 6.00
SMILES: O=C1CN(Cc2cccnc2)CCN1CC(O)CN1CCc2ccccc2C1 (centres unmarked) [Compound C26]

pIC50 [2]: 5.00 to 6.00
SMILES: O=c1cc(Nc2ccccc2)ccn1C[C@H](O)CN1CCc2ccccc2C1 [Compound C18]

pIC50 (Table D-2): 5.00 to 6.00
SMILES: Cc1ccc2c(c1)CN(CC(O)COc1cccc(-c3ccc4ncn(C)c4c3)c1)CC2 (centres unmarked) [Compound D212]

pIC50 (Table D-2): 5.00 to 6.00
SMILES: COc1ccccc1-c1cccc(OCC(O)CN2CCc3ccccc3C2)c1 (centres unmarked) [Compound D71]

pIC50 (Table D-2): 5.00 to 6.00
SMILES: O=C(Nc1cccc(OCC(O)CN2CCc3ccccc3C2)c1)c1cocn1 (centres unmarked) [Compound D159]

pIC50 (Table D-2): 5.00 to 6.00
SMILES: OC(COc1cccc(-c2ccc(Cl)cc2)c1)CN1CCc2ccccc2C1 (centres unmarked) [Compound D69]

pIC50 (Table D-2): < 4.40
SMILES: COc1cccc2c1CCN(CC(O)COc1cccc(CNC3CCCC3)c1)C2 (centres unmarked) [Compound D54]

pIC50 (Table D-2): < 5.00
SMILES: Cn1cnc2ccc(-c3cccc(OCC(O)CN4Cc5ccccc5C(F)(F)C4)c3)cc21 (centres unmarked) [Compound D277]

pIC50 (Table D-2): 5.00 to 6.00
SMILES: OC(COc1ccccc1C1CCCCC1)CN1CCc2ccccc2C1 (centres unmarked) [Compound D8]

pIC50 (Table D-2): 5.00 to 6.00
SMILES: O=C(c1cncc(-c2cccc(OCC(O)CN3CCc4ccccc4C3)c2)c1)N1CCCC1 (centres unmarked) [Compound D181]

pIC50 (Table D-2): 5.00 to 6.00
SMILES: O=C(Nc1cc[nH]n1)c1cccc(OCC(O)CN2CCc3ccccc3C2)c1 (centres unmarked) [Compound D274]

pIC50 [2]: 5.00 to 6.00
SMILES: CN(C)c1ccc(N2CCN(C[C@H](O)CN3CCc4ccccc4C3)C(=O)C2)cc1 [Compound C30]
